Consider three compounds from US20150258062A1, “COMPOSITIONS AND METHODS FOR TREATMENT OF RENAL DISEASE” (priority 2009, published 2015).

The subject of one data set is Inward sodium current. The settings on record: Table 1; cited from earlier work.
A further data set deals with Inward Calcium current. The settings on record: Table 1; cited from earlier work.
The test system of data set [1] is Outward potassium current. The settings on record: Table 1; cited from earlier work.
The nature of data set [2]: Clinic case studies: blood pressure, pulse, body weight, edema, GFR, EKG. The format is in vivo, human.
Data set [3] deals with slow component of the delayed rectifier K+ current (IKs). The note with it: cited from earlier work.
Data set [4] is described as follows: Clinic case studies: serum laboratory profile (uric acid, potassium, creatinine, urea nitrogen). The data set is classed as in vivo, human.
Data set [5] deals with ventricular repolarization, QT interval and Torsade. The settings on record: cited from earlier work.
In data set [6] the test system is non-diabetic patients already receiving dual therapy with both an ACEI plus an ARB agent. The settings on record: after 1 year; non-diabetic patients on ACEI plus ARB; independent of BP changes; cited from earlier work.

For `C[C@]12CCC(=O)C=C1CC[C@@H]1[C@@H]2[C@@H](O)C[C@]2(C=O)[C@@H](C(=O)CO)CC[C@@H]12` [Aldosterone], the “action on inward sodium current” value in the data set with Inward sodium current is on record as “Incresases”. Moreover, in the data set with Inward Calcium current, the “action on inward calcium current” value is “Increases”. Moreover, the “action on outward potassium current” value in data set [1] is on record as “No effect”.

Consider `CC1Cc2ccccc2N1NC(=O)c1ccc(Cl)c(S(N)(=O)=O)c1` (stereo not drawn) [indapamide, 4-chloro-N-(2-methyl-2,3-dihydroindol-1-yl)-3-sulfamoyl-benzamide], for which the “action on inward sodium current” value in the data set with Inward sodium current was “No effect”. The “action on inward calcium current” value with Inward Calcium current was “No effect”. Further, the pedal edema result in data set [2] (Case 1, Day 34, indapamide 2.5 mg with losartan 50 mg, terazosin 2 mg, before spironolactone) is recorded as “decreased”. Besides, the blood pressure in data set [2] (Case 1, Day 34, indapamide 2.5 mg with losartan, terazosin, Day 13 value 142/82) is listed as 150/90. The blood pressure in data set [2] (Example 3 Case 2, diabetic nephropathy, 6 months, 1 month after indapamide 1.25 mg, diltiazem 300 mg started and losartan raised to 100 mg, before 168/108) was 145/93. Besides, the “action on outward potassium current” value in data set [1] is listed as “Slows”. In addition, the “effect on IKs” value in data set [3] is listed as “blocks”. The same compound came in with a uric acid in data set [4] (Case 1, Day 25, indapamide 2.5 mg with losartan 50 mg, terazosin 2 mg) of 7.5 mg/dL. In data set [4] (Case 1, Day 25, indapamide 2.5 mg with losartan 50 mg, terazosin 2 mg, Day 0 value 2.3), this compound had a creatinine of 2.6 mg/dL. This compound showed a urea nitrogen in data set [4] (Case 1, Day 25, indapamide 2.5 mg with losartan 50 mg, terazosin 2 mg, Day 0 value 46) of 36 mg/dL. The serum uric acid in data set [4] (Case 4, indapamide 1.25 mg per day with losartan, amlodipine, after 9 months, baseline 7.5) turned out to be 7.0 mg/dL. The serum potassium in data set [4] (Example 3 Case 1, stage 4 CKD, Day 25, on indapamide 2.5 mg, losartan 50 mg, terazosin 2 mg since Day 13, Day 0 value 5.2) is reported as 4.1 mmol/L. The “serum creatinine and urea nitrogen” value in data set [4] (Example 3 Case 4, diabetic nephropathy, losartan 100 mg, amlodipine 5 mg, indapamide 1.25 mg per day, after 9 months) is listed as “unchanged”. Also, in data set [5] (Table 1), the QT dispersion entry was “increased”, the QT interval entry was “prolongs” and the Torsade result was “prediposes”. In data set [5] (in the presence of normal electrolytes (Letsas, Alexanian et al. 2006)), the “QT interval and torsade de pointes in patients” value is “QT interval prolongation and torsade de pointes”.

As for `CC(=O)S[C@@H]1CC2=CC(=O)CC[C@]2(C)[C@H]2CC[C@@]3(C)[C@@H](CC[C@@]34CCC(=O)O4)[C@H]12` [spironolactone], the “additive reduction of proteinuria” value in data set [6] was 58%.
